The values that follow come from PMC8624998, “Synthesis and Antiproliferative Evaluation of 3-Chloroazetidin-2-ones with Antimitotic Activity: Heterocyclic Bridged Analogues of Combretastatin A-4” (Pharmaceuticals, 2021).

Molecules are shown by their SMILES. Like-named read-outs stand apart in the source and are kept apart here.

The test system of one test is SNB-75. As to the kind of experiment: NCI-60 5 dose screen, CNS Cancer. It is filed as cell-based. The settings on record: Homo sapiens.
In another test the test system is OVCAR-3. In words: NCI-60 5 dose screen, Ovarian Cancer. As to conditions: Homo sapiens. In kind it is cell-based.
The next test concerns RXF 393. In words: NCI-60 5 dose screen, Renal Cancer. It is filed as cell-based. The settings on record: Homo sapiens.
Another test concerns MALME-3M. As to the kind of experiment: NCI-60 5 dose screen, Melanoma. As to conditions: Homo sapiens. It is filed as cell-based.
For another test, the system named is MDA-MB-231 cells. In words: Cell viability assay, antiproliferative activity. It is filed as cell-based. The settings on record: Homo sapiens, MDA-MB-231, 72 h, read-out: Antiproliferative Activity IC50 MDA-MB-231, 72 h. The text has this: Selected β-lactam compounds were next evaluated in the triple negative cell line MDA-MB-231 (Table 4). […] These cancers are difficult to treat since they are generally not responsive to hormone therapies such as the selective oestrogen receptor modulator (SERM) tamoxifen, or aromatase inhibitors such as anastrozole, or to the monoclonal antibody Herceptin, which targets the HER2 receptor. There are fewer treatment options available for TNBC compared with ER+, PR+ and HER2+ breast cancers and the prognosis is poorer. […]. The human breast carcinoma cell line MCF-7 was purchased from the European Collection of Animal Cell Cultures (ECACC). Triple negative breast cancer Hs578T cells and its invasive variant Hs578Ts(i)8 were a kind gift from Dr. Susan McDonnell, School of Chemical and Bioprocess Engineering, University College Dublin. U266 cells were a gift from Dr. Tony McElligott, School of Medicine, St James’s Hospital, Trinity College Dublin. HT-29 cells were purchased from the European Collection of Cell Cultures (originating from a human adenocarcinoma of the colon). The human breast carcinoma cell line MDA-MB-231 and the HL-60 cells derived from a patient with acute myeloid leukaemia were both obtained from ECACC (Salisbury, UK). The SW-480 cells were a kind gift from Dr. Brian Flood, School of Biochemistry and Immunology, Trinity College Dublin. HEK-293T (normal epithelial embryonic kidney cells) were cultured in Dulbecco’s Modified Eagle’s Medium (DMEM) with GlutaMAXTM-I in the absence of non-essential amino acids. Human breast cancer MCF-7 cells and multiple myeloma U266 cells were cultured in Minimum Essential Media (MEM) with GlutaMAX™-I, supplemented with 1% (v/v) non-essential amino acids, 10% 2(v/v) foetal bovine serum (FBS) and 1% (v/v) penicillin/streptomycin 5000 U/mL. MDA-MB-231 cells were maintained in DMEM supplemented with 10% (v/v) foetal bovine serum, 2 mM L-glutamine and 100 μg/mL penicillin/streptomycin (complete medium). Colon cancer HT-29 and SW-480 and triple negative breast cancer Hs578T and its invasive variant Hs578T8i were cultured in DMEM with GlutaMAX™-I, with the same supplement in the absence of non-essential amino acids. Leukaemia HL-60 cancer cells were cultured in Roswell Park Memorial Institute Media (RPMI-1640) with GlutaMAX™-I, supplemented with 10% FCS media, and 100 μg/mL penicillin/streptomycin as above. Cell numbers were monitored using a haemocytometer. Cell culture flasks were incubated in a humidified incubator (5% CO2/95% air) at 37 °C. All cell lines were sub-cultured three times per week with trypsinisation using TrypLE Express (1X) required for adherent cell lines.
. All stock solutions and serial dilution in ethanol/DMSO were stored at -20 °C. All cells were seeded at a density of 2.5 × 10^4 cells/mL in a 96-well plate (200 μL per well). The cells were incubated in a […] atmosphere at 37 °C for 24 h, then treated with test compound (2 μL of stock solutions per 200-microlitre well) in ethanol to obtain a concentration range of 1 nM–200 μM for the study. The plates were then re-incubated for a further 72 h. Control wells contained an equivalent volume of the vehicle ethanol or DMSO (1% v/v). MTT cell viability assay: The culture medium was removed, and the cells were washed with phosphate buffered saline (PBS, […]). MTT (dissolved in PBS, […]) was added to obtain a final concentration of MTT (1 mg/mL). Cells were incubated at 37 °C for 3 h in the dark. Solubilisation was commenced by the addition of DMSO ([…]) and the cells were maintained at 20 °C in the dark for 20 min before reading the absorbance to ensure complete colour diffusion. The absorbance value of control cells (no added compound) was set to 100% cell viability and absorbance versus cell density per well was determined to assess cell viability using Graph-Pad Prism software. […]

The subject of another test is SF295. In words: NCI-60 5 dose screen, CNS Cancer. In kind it is cell-based. As to conditions: Homo sapiens, SF-295.
Another test concerns SK-MEL-2. In words: NCI-60 5 dose screen, Melanoma. It is filed as cell-based. The settings on record: Homo sapiens.
A further test has as its system MDA-MB-435. As to the kind of experiment: NCI-60 5 dose screen, Melanoma. The settings on record: Homo sapiens. In kind it is cell-based.
Another test has as its system HCT-116. As to the kind of experiment: NCI-60 5 dose screen, Colon Cancer. As to conditions: Homo sapiens. It is filed as cell-based.
Another test has as its system NCI-H460. As to the kind of experiment: NCI-60 5 dose screen, NSC Lung Cancer. It is filed as cell-based. The settings on record: Homo sapiens.
For another test, the system named is IGROV1. In words: NCI-60 5 dose screen, Ovarian Cancer. It is filed as cell-based. As to conditions: Homo sapiens, IGROV-1.
Test [1] has as its system purified bovine brain tubulin. In words: In vitro tubulin polymerisation assay. The settings on record: for Fold-Reduction of Vmax of tubulin polymerisation: 10 µM; for Vmax at 10 µM: 10 µM compound, tubulin 3 mg/mL, vehicle 0.0069.
Another test relates to HOP-62. In words: NCI-60 5 dose screen, NSC Lung Cancer. In kind it is cell-based. The settings on record: Homo sapiens.

For orientation: GI50 means the concentration that inhibits growth by half. In general, IC50 refers to the point on the concentration scale where inhibition reaches its midpoint. Take `COc1ccc([C@H]2[C@H](Cl)C(=O)N2c2cc(OC)c(OC)c(OC)c2)cc1` (relative stereo) [Compound 10e trans, Trans-3-chloro-1-(3,4,5-trimethoxyphenyl)-4-(4-methoxyphenyl) azetidin-2-one]: the concentration for 50% growth inhibition (GI50) with SNB-75 (read-out: GI50) came to 38.2 nM; in the test with OVCAR-3 (read-out: GI50), 24.1 nM; in the test with RXF 393 (read-out: GI50), 27.1 nM; with MALME-3M (read-out: GI50), 88.4 nM; with SF295 (SF295, read-out: GI50) it was 25.4 nM; in the test on SK-MEL-2 (read-out: GI50), 45 nM. In addition, the GI50 was determined as 22.6 nM with MDA-MB-435 (read-out: GI50); 39.7 nM in the test with HCT-116 (read-out: GI50); 306 nM with NCI-H460 (read-out: GI50); 58 nM in the test with IGROV1 (IGROV1, read-out: GI50); 53.8 nM in the test on HOP-62 (read-out: GI50). The half-maximal inhibitory concentration (IC50) in the test with MDA-MB-231 cells (10e and 11n results from NCI) was 68.6 nM. The “Fold-Reduction of Vmax of tubulin polymerisation” value in test [1] is 1.8 fold. In addition, the “Vmax at 10 µM” value in test [1] is on record as 0.0039 mOD/min.
As to `COc1ccc(C2N(c3cc(OC)c(OC)c(OC)c3)C(=O)C2(Cl)Cl)cc1O` (centres unmarked) [Compound 11n, 3,3-Dichloro-4-(3-hydroxy-4-methoxyphenyl)-1-(3,4,5-trimethoxyphenyl)azetidin-2-one], the 50% growth inhibitory concentration (GI50) stood at 19.9 nM in the test on SNB-75; 24.4 nM in the test on OVCAR-3; 30 nM in the test on RXF 393; 68.5 nM in the test with MALME-3M; 38.7 nM in the test with SF295; 31.6 nM in the test on SK-MEL-2. Besides, the GI50 with MDA-MB-435 turned out to be 20.2 nM; in the test with HCT-116, 32.8 nM; with NCI-H460 it was 35.4 nM; in the test on IGROV1 it was 44.5 nM; in the test on HOP-62, 35 nM. Further, in the test with MDA-MB-231 cells, the concentration for half-maximal inhibition (IC50) stood at 31.6 nM. In addition, in test [1], the “Fold-Reduction of Vmax of tubulin polymerisation” value came to 1.7 fold. In addition, the “Vmax at 10 µM” value in test [1] was found to be 0.0041 mOD/min.
In the case of `CCSc1ccc(C2C(Br)C(=O)N2c2cc(OC)c(OC)c(OC)c2)cc1` (centres unmarked) [Compound 16d, 3-Bromo-4-(4-(ethylthio)phenyl)-1-(3,4,5-trimethoxyphenyl)azetidin-2-one], the GI50 with SNB-75 (read-out: GI50) was 509 nM; in the test on OVCAR-3 (read-out: GI50) it was 109 nM; in the test on RXF 393 (read-out: GI50), 170 nM; in the test on MALME-3M (read-out: GI50), 11300 nM; with SF295 (SF295, read-out: GI50), 87 nM; in the test on SK-MEL-2 (read-out: GI50), 484 nM. For the same compound, the GI50 with MDA-MB-435 (read-out: GI50) turned out to be 37.7 nM; in the test on HCT-116 (read-out: GI50), 222 nM; in the test with NCI-H460 (read-out: GI50), 539 nM; in the test with IGROV1 (IGROV1, read-out: GI50) it was 63 nM; in the test on HOP-62 (read-out: GI50), 336 nM.
As to `COc1ccc(/C=C\c2cc(OC)c(OC)c(OC)c2)cc1O` [CA-4, Combretastatin A-4], the half-maximal inhibitory concentration (IC50) with MDA-MB-231 cells (10e and 11n results from NCI) came out at 43 nM. The “Vmax at 10 µM” value in test [1] was determined as 0.0022 mOD/min.
